The values that follow come from patent US10035816B2, “Compound for treating respiratory syncytial virus infection and preparation method and use thereof” (SHANDONG UNIVERSITY, priority 2016, dated 2018).

Type in all cases: cell-based
The test system of assay [1] is Human respiratory syncytial virus Long strain. The assay is described as follows: RSV replication assay (virus yield / focus titration in HEp-2 cells). The conditions noted are these: for maximum inhibition effect on RSV replication: compounds tested at 2 ìM and 8 ìM, HEp-2 cells, MOI 0.1, compared with blank control (FIG. 4).
Experimental: The detection procedure of compound effect on RSV replication inhibiting is as following. Human respiratory syncytial virus Long strain and HEp-2 cells were used for infection assays. Cells were maintained in DMEM, supplemented with penicillin/streptomycin and 10% FBS, and incubated at 37° C., 5% CO2. Virus was passaged in HEp-2 cells in the same conditions, but with 2% FBS. Virus stocks were prepared by infecting confluent HEp-2 cells at a low multiplicity of infection (MOI) of 0.1 for two to three days. Cells and virus-containing supernatant were then subjected to a single freeze/thaw cycle at −80° C. to release cell-bound virus, and the sample was clarified by centrifugation at 2000×g for 10 min at 4° C. The supernatant was homogenized, aliquoted and stored at −20° C.
Compounds were tested either during virus adsorption for 1 h at 4° C. to investigate viral entry, post-adsorption for 72 h at 37° C. to investigate viral propagation and replication, or during all stages of infection. The concentration of compound resulting in 50% inhibition (IC50) of virus replication was determined by focus counting (viral entry) or focus size measurement (viral propagation) and was determined using non-linear regression analysis using GraphPad Prism. To assess the cytotoxicity of compounds, a CellTiter-Glo Luminescent Cell Viability Assay was carried following the manufacturer's instruction in the conditions of the focus reduction assay.
As shown in the figure, compounds were tested at 2 concentrations (2 ìM, 8 ìM) in the RSV replication assay. The control (compound-free) is scored at 100% replication.
Human respiratory syncytial virus Long strain (ATCC reference VR-26) and HEp-2 cells (ATCC reference CCL-23) were used for infection assays. Cells were maintained in DMEM, supplemented with penicillin/streptomycin and 10% FBS, and incubated at 37° C., 5% CO2. Virus was passaged in HEp-2 cells in the same conditions, but with 2% FBS. Virus stocks were prepared by infecting confluent HEp-2 cells at a low multiplicity of infection (MOI) of 0.1 for two to three days. […]
Assay [2] concerns Smo-dependent SAG induced gene expression (Hh signal pathway). The assay is described as follows: Hedgehog (Hh) signal pathway inhibition assay, Gli-binding site-luciferase reporter in NIH3T3 cells. Particulars: compound 10 uM, SAG 0.5 ìM, control (compound-free, presence of SAG) = 100% gene expression (FIG. 5).
Experimental: The detection procedure of compound effect on Hh signal pathway inhibiting is as following. NIH3T3 cells are seeded cells in 6 well plates, or 12 well plate one day in advance, with 5% FBS DMEM, without antibiotics per well so that they will be 90˜95% confluent at the time of transfection. Plasmids are diluted with Lipofectamine 2000 (total volume is 100-1000 ìl) and added to each well containing cells and medium, followed by incubation at 37° C. in a CO2 incubator for 48 h. […] At the end of the incubation, cells are washed, lysed and lysate transferred to a 96-well white plate. LAR II reagent is added (from Promega, Dual-luciferase reporter assay system) and samples read in a luminescence reader.
The control (compound-free, presence of SAG) is scored at 100% gene expression.
Assay [3] deals with RSV replication and Hh activity. The assay is described as follows: Coefficient of inhibition (ICrh): RSV replication inhibition vs. Hh pathway inhibition relative to CPM. The conditions noted are these: ratio of RSV inhibition to Hh inhibition of the analog divided by the same ratio of CPM; >1 favorable (FIG. 6). The text has this: To assess the differential Hh pathway inhibition vs. replication inhibition of analogs (cpd), we determined a coefficient of inhibition (ICrh).
A score higher than 1 indicates a favorable profile.
The substep of screening compounds is that selecting the compounds with ICrh data larger than 1, and filtering out the compounds with ICrh data smaller than 1. Furthermore, the compounds with larger ICrh data will be selected preferentially.

With `CCNC(=O)O[C@H]1CC[C@@]2(C)C(=CC[C@H]3[C@@H]4CC[C@]5(O[C@@H]6C[C@H](C)CN(C(=O)C(F)(F)F)[C@H]6[C@H]5C)C(C)=C4C[C@@H]32)C1` [S1-2], the “maximum inhibition effect on RSV replication” value in assay [1] is recorded as 99%. The “inhibition of SAG-induced gene expression” value in assay [2] is listed as 36%. For the same compound, the “coefficient of inhibition on RSV replication and Hh activity (ICrh)” value in assay [3] was found to be 1.446.
In the same order, the values of `CC1=C2C[C@H]3[C@@H](CC=C4C[C@@H](OC(=O)NC5CC5)CC[C@@]43C)[C@@H]2CC[C@]12O[C@@H]1C[C@H](C)CN(C(=O)C(F)(F)F)[C@H]1[C@H]2C` [S1-4] are 88%, 5% and 1.617.
Consider cyclopamine [CPM, reference compound], for which the “RSV replication in the presence of compound” value in assay [1] (compound-free control scored at 100% replication (FIG. 4)) was determined as 0%. For the same compound, the “inhibition of SAG-induced gene expression” value in assay [2] turned out to be 56%.
